Results reported in ChEMBL document CHEMBL1201862, “PubChem BioAssay data set” (2004).
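How tested: cells in 96-well plates exposed to compound for 48 hours at five concentrations. Here, GI50 denotes the concentration required for 50% inhibition of growth.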 Calls of active or inactive are those of the source. Rule as the data show it: active = GI50 up to about 1.1 µM and inactive = higher.

Legend:
Experiment in all cases: NCI-60 cell line screen, 48 h
OVCAR-5 = test system: OVCAR-5
RPMI-8226 = test system: RPMI-8226
HCT-15 = test system: HCT-15
CCRF-CEM = test system: CCRF-CEM
HCT-116 = test system: HCT-116
UACC-257 = test system: UACC-257
SK-MEL-5 = test system: SK-MEL-5
SK-OV-3 = test system: SK-OV-3
HT-29 = test system: HT-29
SNB-19 = test system: SNB-19
SF-268 = test system: SF-268
EKVX = test system: EKVX
COLO 205 = test system: COLO 205
CAKI-1 = test system: CAKI-1
A549 = test system: A549
OVCAR-8 = test system: OVCAR-8
K562 = test system: K562
OVCAR-3 = test system: OVCAR-3
IGROV-1 = test system: IGROV-1
HCC 2998 = test system: HCC 2998

Structure (SMILES)	GI50 (OVCAR-5)	GI50 (RPMI-8226)	GI50 (HCT-15) [µM]	GI50 (CCRF-CEM)	GI50 (HCT-116)	GI50 (UACC-257)	GI50 (SK-MEL-5)	GI50 (SK-OV-3)	GI50 (HT-29)	GI50 (SNB-19)	GI50 (SF-268)	GI50 (EKVX)	GI50 (COLO 205)	GI50 (CAKI-1)	GI50 (A549)	GI50 (OVCAR-8)	GI50 (K562)	GI50 (OVCAR-3)	GI50 (IGROV-1)	GI50 (HCC 2998)
CCSc1nc(N)c2c(-c3ccc(OC)c(OC)c3)c3c(nc2n1)CCCC3	> 100 µM (inactive)	> 100 µM (inactive)	> 100	> 100 µM (inactive)	> 100 µM (inactive)	> 100 µM (inactive)	> 100 µM (inactive)	> 100 µM (inactive)	> 100 µM (inactive)	> 100 µM (inactive)	> 100 µM (inactive)	> 100 µM (inactive)	> 100 µM (inactive)	> 100 µM (inactive)	> 100 µM (inactive)	> 100 µM (inactive)	> 100 µM (inactive)	> 100 µM (inactive)	> 100 µM (inactive)	
CSc1nc2c(ncn2C2OCC(O)C(O)C2O)c(=O)n1C (stereo not drawn)	> 100 µM (inactive)	> 100 µM (inactive)	> 100	> 100 µM (inactive)	> 100 µM (inactive)	> 100 µM (inactive)	> 100 µM (inactive)	> 100 µM (inactive)	> 100 µM (inactive)	> 100 µM (inactive)	> 100 µM (inactive)	> 100 µM (inactive)	> 100 µM (inactive)		> 100 µM (inactive)	> 100 µM (inactive)	> 100 µM (inactive)	> 100 µM (inactive)	> 100 µM (inactive)	> 100 µM (inactive)
ClCc1nnc2n1-c1ccc(Cl)cc1SC2	12.2 µM (inactive)	3.3 µM (inactive)	4.56	2.19 µM (inactive)	3.1 µM (inactive)	2.16 µM (inactive)	2.62 µM (inactive)	3.56 µM (inactive)	3.65 µM (inactive)	13 µM (inactive)	2.87 µM (inactive)	13.3 µM (inactive)	4.06 µM (inactive)		5.05 µM (inactive)	4.02 µM (inactive)	2.9 µM (inactive)	2.17 µM (inactive)	2.94 µM (inactive)	4.06 µM (inactive)
O=C(N/N=C/C=C/c1ccc([N+](=O)[O-])o1)c1ccc(Br)s1	26.3 µM (inactive)	3.78 µM (inactive)	13.2	9.2 µM (inactive)	3.48 µM (inactive)		18.6 µM (inactive)	> 100 µM (inactive)	17 µM (inactive)	24 µM (inactive)	28.8 µM (inactive)	31.2 µM (inactive)	17 µM (inactive)	27.9 µM (inactive)	82.8 µM (inactive)	16.9 µM (inactive)	24.5 µM (inactive)	16.1 µM (inactive)	6.76 µM (inactive)	
CC(=O)OC(C(=O)O)C(OC(C)=O)C(OC(C)=O)C(OC(C)=O)C(=O)O (stereo not drawn)	> 100 µM (inactive)	> 100 µM (inactive)	> 100	> 100 µM (inactive)	> 100 µM (inactive)	> 100 µM (inactive)	> 100 µM (inactive)	> 100 µM (inactive)	> 100 µM (inactive)	> 100 µM (inactive)	> 100 µM (inactive)	> 100 µM (inactive)	> 100 µM (inactive)	> 100 µM (inactive)	> 100 µM (inactive)	> 100 µM (inactive)	> 100 µM (inactive)	> 100 µM (inactive)	> 100 µM (inactive)	
COc1cc2c(cc1OC)-c1c(cnn1C1OC(COC(C)=O)C(OC(C)=O)C(OC(C)=O)C1OC(C)=O)CC2 (stereo not drawn)	> 100 µM (inactive)	> 42.8 µM (inactive)	> 100	28.6 µM (inactive)	> 100 µM (inactive)	> 100 µM (inactive)	> 83.4 µM (inactive)	> 100 µM (inactive)	> 100 µM (inactive)	> 100 µM (inactive)	> 100 µM (inactive)	> 100 µM (inactive)	> 100 µM (inactive)	> 100 µM (inactive)	> 100 µM (inactive)	> 100 µM (inactive)	33 µM (inactive)	> 88.1 µM (inactive)	> 100 µM (inactive)	
